Source: article PMC11672724, “Antiparasitic Activities of Acyl Hydrazones from Cinnamaldehydes and Structurally Related Fragrances” (Antibiotics, 2024)

Key:
[1] = test system: T. gondii RH strain tachyzoites; assay: Toxoplasma gondii cells drug testing assay (infection index in Vero cells, 72 h); format: cell-based; conditions: for IC50: Toxoplasma gondii, Vero, IC50 ± SD, three independent experiments, 72 h; for SI = selectivity index (Vero/T. gondii): ratio IC50 Vero / IC50 T. gondii
Method: Cells of the Vero cell line (ATCC® CCL81™, Manassas, VA, USA) were used to cultivate T. gondii RH strain tachyzoites. Vero cells were maintained in complete RPMI 1640 medium (Thermo Fisher Scientific, Waltham, MA, USA). For cell cultivation, 96-well plates were prepared with 5 × 10^3 cells per well in 200 μL of RPMI 1640 medium, then incubated at 37 °C and 5% CO2 for 24 h. The medium was then removed, and cells were washed with phosphate-buffered saline (PBS). Next, RPMI 1640 medium with 2% FBS and parasites at a 5:1 parasite-to-cell ratio were added. After a 5 h incubation at 37 °C and 5% CO2, cells were washed with PBS and subjected to further treatments. […] After incubation at 37 °C and 5% CO2 for 72 h, cells were washed with PBS, fixed in 10% formalin, and stained with 1% toluidine blue. An inverted photomicroscope was used to assess cell infection and to determine the infection index (number of infected cells out of 200 counted cells). The inhibition percentage was calculated as follows:Inhibition (%) = [(I Control − I Experimental)/I Control] × 100 where “I Control” represents the infection index of untreated cells, and “I Experimental” represents the infection index of cells treated with test compounds. The effects of the compounds on parasite growth are expressed as IC50 values derived from three independent experiments.

Vero monkey kidney cells = assay: Vero cell cytotoxicity (MTT assay, 72 h); format: cell-based; conditions: Primates, IC50 ± SD
Method: To assess the test compounds’ cytotoxicity, MTT assays were performed. The Vero cells and macrophages were cultivated for 24 h at 37 °C in RPMI 1640 media with 10% FBS and 5% CO2 in 96-well plates (5 × 10^3 cells/well/200 μL). Following a washing step with PBS, the cells were treated with test compounds at different concentrations (50, 25, 12.5, 6.25, 3.13, 1.65, and 0.75 μg /mL) in 10% FBS medium for 72 h. Negative control cells were only given media with 2% FBS and 1% DMSO. The cells were cultured for 4 h after the supernatant was disposed of, and 50 μL of RPMI 1640 media containing 14 μL MTT (5 mg/mL) was added. After removing the supernatant once again, 150 μL of DMSO was added. IC50 values were determined from three independent experiments.

L. major promastigotes = assay: Leishmania major promastigote assay (MTT, 72 h); format: cell-based; conditions: for IC50: 72 h, IC50 ± SD, MTT
Method: (§1) Promastigotes of L. major were obtained from a patient (February 2016) and cultured at 26 °C in Schneider’s Drosophila medium (Invitrogen, Carlsbad, CA, USA) supplemented with 10% heat-inactivated fetal bovine serum (FBS, Invitrogen, USA) and antibiotics, with weekly transfers in a tissue culture flask. Promastigotes were cryopreserved in liquid nitrogen at a concentration of 3 × 10^6 parasites/mL. Virulent L. major parasites were maintained by serial passage in female BALB/c mice, achieved by injecting hind footpads with 1 × 10^6 stationary-phase promastigotes. Amastigotes were isolated from the mice after 8 weeks, then converted to promastigotes by cultivation at 26 °C in Schneider’s medium containing 10% FBS and antibiotics. Amastigote-derived promastigotes, which underwent several in vitro passages, were used for the infection studies. BALB/c mice (both male and female) were provided by the Pharmaceutical College, King Saud University, Kingdom of Saudi Arabia, and housed in specific pathogen-free conditions following the ethical guidelines of the Qassim University Research Ethics Committee (permission number: 20-03-20).
L. major promastigotes in the logarithmic phase were cultured in phenol-red-free RPMI 1640 medium (Invitrogen, USA) with 10% FBS in 96-well plates at 10^6 cells/mL (200 μL/well, counted with a hemocytometer). Test compounds were added at final concentrations of 50, 25, 12.5, 6.25, 3.13, 1.65, and 0.75 μg/mL. […] After incubation at 26 °C for 72 h, viable promastigotes were counted using an MTT colorimetric assay. The formed formazan was dissolved in a detergent and the absorbance was measured at 570 nm using an ELISA reader. IC50 values were derived from three independent experiments.

L. major amastigotes = assay: Leishmania major amastigotes in peritoneal macrophages (percentage of infected macrophages, 72 h); format: cell-based; conditions: Macrophage, IC50 ± SD
Method: as §1
Activity against amastigotes in macrophages was evaluated using peritoneal macrophages, which were harvested from 6–8-week-old BALB/c mice of different sex, and plated at 5 × 10^4 cells/well in 96-well plates containing phenol-red-free RPMI 1640 medium with 10% FBS. After 4 h at 37 °C and 5% CO2 to promote adhesion, cells were washed with PBS, and 200 μL of an L. major promastigote solution (10 promastigotes per macrophage) was added. Plates were incubated for 24 h at 37 °C in a 5% CO2 environment to allow infection and amastigote differentiation. Infected cells were then washed with PBS and overlaid with RPMI 1640 medium containing the test compounds at the same concentrations as applied for the experiments with promastigotes, followed by incubation at 37 °C and 5% CO2 for 72 h. […] IC50 values were calculated from three independent experiments.

macrophages = assay: Macrophage cytotoxicity (MTT assay, 72 h); format: cell-based, BALB/c mice; conditions: Mus musculus, IC50 ± SD
Method: Plates were incubated for 24 h at 37 °C in a 5% CO2 environment to allow infection and amastigote differentiation. Infected cells were then washed with PBS and overlaid with RPMI 1640 medium containing the test compounds at the same concentrations as applied for the experiments with promastigotes, followed by incubation at 37 °C and 5% CO2 for 72 h. […] The percentage of infected macrophages was determined microscopically after fixation, Giemsa staining, and medium removal. IC50 values were calculated from three independent experiments. To assess the test compounds’ cytotoxicity, MTT assays were performed. […] Negative control cells were only given media with 2% FBS and 1% DMSO. The cells were cultured for 4 h after the supernatant was disposed of, and 50 μL of RPMI 1640 media containing 14 μL MTT (5 mg/mL) was added. After removing the supernatant once again, 150 μL of DMSO was added. IC50 values were determined from three independent experiments.

Structure (SMILES) | IC50 [1] | IC50 (Vero monkey kidney cells) | IC50 (L. major promastigotes; Leishmania major) | IC50 (L. major amastigotes) | IC50 (macrophages) | melting point | SI = selectivity index (Vero/T. gondii) [1] | activity against T. gondii (in words) [1] | IC50 (L. major promastigotes) | SI (promastigotes) = selectivity index (macrophages/L. major promastigotes) (L. major promastigotes; ratio IC50 macrophages / IC50 promastigotes)
CC(C)c1cccc(C(C)C/C=N/NC(=O)c2cccc(O)c2)c1 (stereo not drawn) [Compound 4c, N′-3-(3-Isopropylphenyl)butanylidene-3-hydroxybenzoylhydrazide] | > 61.7 µM | 29.1 ± 2.6 µM | > 61.7 µM | > 61.7 µM | > 61.7 µM | 196 to 197 °C |  |  |  | 
CC(C)Cc1ccc(CC(C)/C=N/NC(=O)c2ccccc2O)cc1 (stereo not drawn) [Compound 3b, N′-2-Methyl-3-[4-(2-methylpropyl)phenyl]propanylidene-2-hydroxybenzoylhydrazide] | 13.7 ± 2.2 µM | 24.6 ± 3.3 µM | > 59.1 µM | 58.6 ± 8.6 µM | > 59.1 µM | 160 to 161 °C | 1.8 |  |  | 
CC(C)Cc1ccc(CC(C)/C=N/NC(=O)c2ccccc2F)cc1 (stereo not drawn) [Compound 3d, N′-2-Methyl-3-[4-(2-methylpropyl)phenyl]propanylidene-2-fluorobenzoylhydrazide] | 46.3 ± 5.5 µM | 56.1 ± 10.4 µM | > 58.8 µM | > 58.8 µM | > 58.8 µM | 82 to 83 °C | 1.2 |  |  | 
CN(C)c1ccc(/C=C/C=N/NC(=O)c2cccc(O)c2)cc1 [Compound 2f, (E)-N′-(4-Dimethylaminocinnamylidene)-3-hydroxybenzoylhydrazide] | > 42.7 µM | 40.1 ± 6.8 µM | > 42.7 µM | > 42.7 µM | > 42.7 µM | 257 to 258 °C |  | inactive |  | 
CN(C)c1ccc(/C=C/C=N/NC(=O)c2cccc(Cl)c2)cc1 [Compound 2k, (E)-N′-(4-Dimethylaminocinnamylidene)-3-chlorobenzoylhydrazide] | > 40.3 µM | > 40.3 µM | > 40.3 µM | > 40.3 µM | > 40.3 µM | 210 °C |  |  |  | 
CN(C)c1ccc(/C=C/C=N/NC(=O)c2ccccc2F)cc1 [Compound 2h, (E)-N′-(4-Dimethylaminocinnamylidene)-2-fluorobenzoylhydrazide] | 55.2 ± 9.7 µM | 54.1 ± 9.1 µM | > 64.2 µM | > 64.2 µM | > 64.2 µM | 205 to 206 °C | 0.98 |  |  | 
CC(C)Cc1ccc(CC(C)/C=N/NC(=O)c2cccc(O)c2)cc1 (stereo not drawn) [Compound 3c, N′-2-Methyl-3-[4-(2-methylpropyl)phenyl]propanylidene-3-hydroxybenzoylhydrazide] | 55.3 ± 9.4 µM | > 59.1 µM | > 59.1 µM | > 59.1 µM | > 59.1 µM | 182 to 183 °C |  |  |  | 
CN(C)c1ccc(/C=C/C=N/NC(=O)c2cccc(F)c2)cc1 [Compound 2j, (E)-N′-(4-Dimethylaminocinnamylidene)-3-fluorobenzoylhydrazide] | > 42.4 µM | > 42.4 µM | > 42.4 µM | > 42.4 µM | > 42.4 µM | 208 °C |  |  |  | 
CC(C)Cc1ccc(CC(C)/C=N/NC(=O)c2cccc(Cl)c2)cc1 (stereo not drawn) [Compound 3f, N′-2-Methyl-3-[4-(2-methylpropyl)phenyl]propanylidene-3-chlorobenzoylhydrazide] | 22 ± 3.3 µM | 50.2 ± 7.7 µM | < 30 µM | > 56 µM | > 56 µM | 88 to 89 °C | 2.3 |  | 29.1 ± 3.3 µM | >1.9
CC(C)Cc1ccc(CC(C)/C=N/NC(=O)c2ccncc2)cc1 (stereo not drawn) [Compound 3g, N′-2-Methyl-3-[4-(2-methylpropyl)phenyl]propanylidene-isonicotinoylhydrazide] | 60.6 ± 10.1 µM | > 61.8 µM | > 61.8 µM | > 61.8 µM | > 61.8 µM | 122 to 123 °C |  |  |  | 
O=C(N/N=C/C=C/c1ccccc1)c1cccc(O)c1 [Compound 2e, (E)-N′-(Cinnamylidene)-3-hydroxybenzoylhydrazide] | > 49.6 µM | 46.2 ± 6.4 µM | > 49.6 µM | > 49.6 µM | > 49.6 µM | 249 to 250 °C |  | inactive |  | 
O=C(N/N=C/C=C/c1ccccc1)c1cccc(F)c1 [Compound 2i, (E)-N′-(Cinnamylidene)-3-fluorobenzoylhydrazide] | 39.1 ± 6.4 µM | 44 ± 6.7 µM | > 49.2 µM | > 49.2 µM | > 49.2 µM | 205 to 206 °C | 1.1 |  |  | 
